Laboratory results: patent US9884063B2, “Amido-substituted azole compounds” (Bayer Pharma Aktiengesellschaft, priority 2014, dated 2018)
“And” between values parts separate entries of the source, which are not always exact repeats. Identical values can stand only once.

Columns and labels:
TNKS2 = biological target: T1, TNKS2 (Homo sapiens, UniProt Q9H2K2); assay: Modified TNKS2 Assay 3 (BPS kit #80578, biotin-NAD+, 96 well); format: biochemical; conditions: human TNKS2, BPS kit #80578, 96 well
T1 sequence (Q9H2K2 1-1166): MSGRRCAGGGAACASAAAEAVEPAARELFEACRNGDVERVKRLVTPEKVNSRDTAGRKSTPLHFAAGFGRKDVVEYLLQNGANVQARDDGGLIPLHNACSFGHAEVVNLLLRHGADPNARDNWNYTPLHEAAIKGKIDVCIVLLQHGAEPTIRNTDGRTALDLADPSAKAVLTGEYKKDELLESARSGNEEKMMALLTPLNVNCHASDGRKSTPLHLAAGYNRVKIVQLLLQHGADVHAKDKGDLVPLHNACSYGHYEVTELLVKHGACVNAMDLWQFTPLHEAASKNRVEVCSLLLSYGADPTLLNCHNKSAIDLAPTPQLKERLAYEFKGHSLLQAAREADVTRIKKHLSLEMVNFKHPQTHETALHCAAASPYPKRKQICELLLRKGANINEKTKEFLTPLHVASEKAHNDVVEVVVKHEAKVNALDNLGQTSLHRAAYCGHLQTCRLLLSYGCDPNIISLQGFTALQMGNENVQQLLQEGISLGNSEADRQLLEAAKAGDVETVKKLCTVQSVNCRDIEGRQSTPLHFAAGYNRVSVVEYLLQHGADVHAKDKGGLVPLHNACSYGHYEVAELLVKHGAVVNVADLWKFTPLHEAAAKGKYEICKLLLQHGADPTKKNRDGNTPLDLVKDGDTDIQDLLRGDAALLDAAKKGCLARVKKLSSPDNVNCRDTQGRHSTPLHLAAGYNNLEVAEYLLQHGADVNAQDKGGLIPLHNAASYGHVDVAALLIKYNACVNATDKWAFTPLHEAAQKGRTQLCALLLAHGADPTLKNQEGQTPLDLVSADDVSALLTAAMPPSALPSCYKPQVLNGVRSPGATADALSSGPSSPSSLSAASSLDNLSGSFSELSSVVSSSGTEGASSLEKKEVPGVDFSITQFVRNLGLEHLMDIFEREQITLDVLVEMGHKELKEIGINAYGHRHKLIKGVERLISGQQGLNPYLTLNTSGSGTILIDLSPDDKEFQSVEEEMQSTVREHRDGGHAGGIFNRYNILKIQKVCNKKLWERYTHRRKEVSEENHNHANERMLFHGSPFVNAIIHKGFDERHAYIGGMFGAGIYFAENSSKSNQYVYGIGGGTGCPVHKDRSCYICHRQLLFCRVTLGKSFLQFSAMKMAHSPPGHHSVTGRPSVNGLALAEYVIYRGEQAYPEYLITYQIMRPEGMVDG
Method in brief: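 Commercial kit assay measuring TNKS2-catalysed incorporation of biotin-labelled NAD+ into a protein substrate, detected by streptavidin-HRP chemiluminescence. Run per manufacturer's protocol; IC50 is the concentration halving the normalised signal.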

[1] = tested on: HEK293 FOP control reporter cell line; assay: HEK293 FOP Assay (FOP control vector luciferase reporter); format: cell-based; conditions: Homo sapiens
Method in brief: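 Stable HEK293 line carrying the FOP vector (randomized, non-functional TCF sites; Geneticin-selected) was run in parallel with the TOP line. Cells were plated 24 h ahead at 10000/well and given recombinant human Wnt-3a at 2500–5 ng/ml. Compounds were tested at 50 μM–15 nM (3.16-fold steps) in CAFTY buffer, pH 7.4, with 2 mM Ca2+ and 0.01% BSA.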

[2] = HEK293 FOP control reporter cell line, 16 hours incubation, compound dilution series 50 μM to 15 nM
[3] = HEK293 FOP control reporter cells, 16 hours, luciferase, dilution series from 50 μM

Compound	IC50 (TNKS2)	IC50 [1, 2] [nM]	IC50 [1, 3] [nM]
CN(C)CCNC(=O)c1ncoc1C(=O)Nc1ccc(NC(=O)c2ccc(F)cc2Cl)cc1 [Example 31, N^5-{4-[(2-chloro-4-fluorobenzoyl)amino]phenyl}-N^4-[2-(dimethylamino)ethyl]-1,3-oxazole-4,5-dicarboxamide]	130 nM	–	≥ 50000
O=C(Nc1ccc(NC(=O)c2[nH]cnc2C(=O)NCCN2CCCCC2)cc1)c1ccc(F)cc1 [Example 33, N^4-{4-[(4-fluorobenzoyl)amino]phenyl}-N^5-[2-(piperidin-1-yl)ethyl]-1H-imidazole-4,5-dicarboxamide]	> 500 nM	–	≥ 50000
CNC(=O)c1nc[nH]c1C(=O)Nc1ccc(NC(=O)c2c(C)cc(C)cc2C)cc1 [Example 35, N^5-{4-[(mesitylcarbonyl)amino]phenyl}-N^4-methyl-1H-imidazole-4,5-dicarboxamide]	> 500 nM	–	≥ 50000
CNC(=O)c1nc[nH]c1C(=O)Nc1ccc(NC(=O)c2ccccc2Br)cc1 [Example 37, N^5-{4-[(2-bromobenzoyl)amino]phenyl}-N^4-methyl-1H-imidazole-4,5-dicarboxamide]	260 nM	20000	20000
O=C(Nc1ccc(NC(=O)c2[nH]cnc2C(=O)NCCC2CC2)cc1)c1cc(F)c(F)cc1Cl [Example 49, N^5-{4-[(2-chloro-4,5-difluorobenzoyl)amino]phenyl}-N^4-(2-cyclopropylethyl)-1H-imidazole-4,5-dicarboxamide]	> 500 nM	17000	–
O=C(Nc1ccc(NC(=O)c2[nH]cnc2C(=O)NCCN2CCCCC2)cc1)c1cc(OC(F)(F)F)ccc1Br [Example 63, N^5-(4-{[2-bromo-5-(trifluoromethoxy)benzoyl]amino}phenyl)-N^4-[2-(piperidin-1-yl)ethyl]-1H-imidazole-4,5-dicarboxamide]	4 nM	11000	–
CNC(=O)c1[nH]c(C)nc1C(=O)Nc1ccc(NC(=O)c2ccc(F)cc2Cl)cc1 [Example 65, N^4-{4-[(2-chloro-4-fluorobenzoyl)amino]phenyl}-N^5,2-dimethyl-1H-imidazole-4,5-dicarboxamide]	360 nM	9500	–
O=C(Nc1ccc(NC(=O)c2nc[nH]c2C(=O)N2CC3(COC3)C2)cc1)c1ccc(F)cc1Cl [Example 145, N-{4-[(2-chloro-4-fluorobenzoyl)amino]phenyl}-5-(2-oxa-6-azaspiro[3.3]hept-6-ylcarbonyl)-1H-imidazole-4-carboxamide]	> 500 nM	–	–
O=C(Nc1ccc(NC(=O)c2nc[nH]c2C(=O)NCCN2CC[C@@H](F)C2)cc1)c1ccc(F)cc1Cl [Example 231, N^4-{4-[(2-chloro-4-fluorobenzoyl)amino]phenyl}-N^5-{2-[(3R)-3-fluoropyrrolidin-1-yl]ethyl}-1H-imidazole-4,5-dicarboxamide]	20 nM	–	–
CNC(=O)c1nc[nH]c1C(=O)Nc1ccc(NC(=O)c2ccc(OC)cc2Cl)cc1 [Example 246, N^5-{4-[(2-chloro-4-methoxybenzoyl)amino]phenyl}-N^4-methyl-1H-imidazole-4,5-dicarboxamide]	60 nM	–	–
O=C(Nc1ccc(NC(=O)c2nc[nH]c2C(=O)NCCN2CCC[C@H](O)C2)cc1)c1ccc(F)cc1Cl [Example 271, N^4-{4-[(2-chloro-4-fluorobenzoyl)amino]phenyl}-N^5-{2-[(3S)-3-hydroxypiperidin-1-yl]ethyl}-1H-imidazole-4,5-dicarboxamide]	2 nM	–	–
CNC(=O)c1nc[nH]c1C(=O)Nc1ccc(NC(=O)c2ccc(C#N)cc2F)cc1 [Example 369, N^5-{4-[(4-cyano-2-fluorobenzoyl)amino]phenyl}-N^4-methyl-1H-imidazole-4,5-dicarboxamide]	40 nM	–	–

Continued, in another order:

IC50 (TNKS2)	Compound	IC50 [1, 2] [nM]	IC50 [1, 3] [nM]
20 nM	COC(=O)c1nc[nH]c1C(=O)Nc1ccc(NC(=O)c2ccc(F)cc2Cl)cc1 [Example 13, Methyl 5-({4-[(2-chloro-4-fluorobenzoyl)amino]phenyl}carbamoyl)-1H-imidazole-4-carboxylate]	25000	25000
40 nM	O=C(Nc1ccc(NC(=O)c2[nH]cnc2C(=O)NC2CC2)cc1)c1ccc(F)cc1Cl [Example 45, N^5-{4-[(2-chloro-4-fluorobenzoyl)amino]phenyl}-N^4-cyclopropyl-1H-imidazole-4,5-dicarboxamide]	40000	–
420 nM	CC(C)(N)CNC(=O)c1ncoc1C(=O)Nc1ccc(NC(=O)c2ccc(F)cc2Cl)cc1 [Example 219, N^4-(2-amino-2-methylpropyl)-N^5-{4-[(2-chloro-4-fluorobenzoyl)amino]phenyl}-1,3-oxazole-4,5-dicarboxamide]	–	–
340 nM	CC(C)(O)CNC(=O)c1[nH]cnc1C(=O)Nc1ccc(NC(=O)c2ccc(F)cc2Cl)cc1 [Example 223, N^4-{4-[(2-chloro-4-fluorobenzoyl)amino]phenyl}-N^5-(2-hydroxy-2-methylpropyl)-1H-imidazole-4,5-dicarboxamide]	–	–
4 nM and < 0.5 nM	O=C(Nc1ccc(NC(=O)c2nc[nH]c2C(=O)NCCN2CCCC2)cc1)c1ccc(F)cc1Cl [Example 228, N^4-{4-[(2-chloro-4-fluorobenzoyl)amino]phenyl}-N^5-[2-(pyrrolidin-1-yl)ethyl]-1H-imidazole-4,5-dicarboxamide]	–	–
160 nM	O=C(Nc1ccc(NC(=O)c2nc[nH]c2C(=O)NCC2CCOCC2)cc1)c1ccc(F)cc1Cl [Example 233, N^4-{4-[(2-chloro-4-fluorobenzoyl)amino]phenyl}-N^5-(tetrahydro-2H-pyran-4-ylmethyl)-1H-imidazole-4,5-dicarboxamide]	–	–
150 nM	O=C(Nc1ccc(NC(=O)c2nc[nH]c2C(=O)NCC2CCOC2)cc1)c1ccc(F)cc1Cl (stereo not drawn) [Example 235, N^4-{4-[(2-chloro-4-fluorobenzoyl)amino]phenyl}-N^5-(tetrahydrofuran-3-ylmethyl)-1H-imidazole-4,5-dicarboxamide]	–	–
230 nM	O=C(Nc1ccc(NC(=O)c2nc[nH]c2C(=O)NCC2CCCO2)cc1)c1ccc(F)cc1Cl (stereo not drawn) [Example 237, N^4-{4-[(2-chloro-4-fluorobenzoyl)amino]phenyl}-N^5-(tetrahydrofuran-2-ylmethyl)-1H-imidazole-4,5-dicarboxamide]	–	–
30 nM	CC(C)(N)CNC(=O)c1[nH]cnc1C(=O)Nc1ccc(NC(=O)c2ccc(F)cc2Cl)cc1 [Example 280, N^5-(2-amino-2-methylpropyl)-N^4-{4-[(2-chloro-4-fluorobenzoyl)amino]phenyl}-1H-imidazole-4,5-dicarboxamide]	–	–
10 nM	CC(C)(N)CCNC(=O)c1[nH]cnc1C(=O)Nc1ccc(NC(=O)c2ccc(F)cc2Cl)cc1 [Example 286, N^5-(3-amino-3-methylbutyl)-N^4-{4-[(2-chloro-4-fluorobenzoyl)amino]phenyl}-1H-imidazole-4,5-dicarboxamide]	–	–
20 nM	CNCCNC(=O)c1[nH]cnc1C(=O)Nc1ccc(NC(=O)c2ccc(F)cc2Cl)cc1 [Example 287, N^4-{4-[(2-chloro-4-fluorobenzoyl)amino]phenyl}-N^5-[2-(methylamino)ethyl]-1H-imidazole-4,5-dicarboxamide]	–	–
3 nM	CC(C)NCCNC(=O)c1[nH]cnc1C(=O)Nc1ccc(NC(=O)c2ccc(F)cc2Cl)cc1 [Example 288, N^4-{4-[(2-chloro-4-fluorobenzoyl)amino]phenyl}-N^5-[2-(isopropylamino)ethyl]-1H-imidazole-4,5-dicarboxamide]	–	–
8 nM	CN1CCC(CNC(=O)c2nc[nH]c2C(=O)Nc2ccc(NC(=O)c3ccc(F)cc3Cl)cc2)C1 (stereo not drawn) [Example 407, N^5-{4-[(2-chloro-4-fluorobenzoyl)amino]phenyl}-N^4-[(1-methylpyrrolidin-3-yl)methyl]-1H-imidazole-4,5-dicarboxamide]	–	–
